Assay results taken from US6340687B1, “Substituted tetrahydro-pyrimidine-2(1H)-thione HDL-C elevators useful as antiatherosclerotic agents” (American Home Products Corporation, priority 1997, dated 2002).

How the values were obtained:
HDL cholesterol = assay: in vivo standard pharmacological test procedure measuring elevation of HDL cholesterol levels in cholesterol/cholic acid-fed rats; set-up: species or system Male Sprague-Dawley rats; settings: serum, eight days of treatment; for change in vivo at 50 mg/kg: dose 50 mg/kg mixed in diet; for change in vivo at 100 mg/kg / HDL Cholesterol Level Increase (%): dose 100 mg/kg mixed in diet
Experimental: Representative compounds of this invention were evaluated in an in vivo standard pharmacological test procedure which measured the ability of the compounds of this invention to elevate HDL cholesterol levels. The following briefly describes the procedure used and results obtained. Male Sprague-Dawley rats weighing 200-225 g were housed two per cage and fed Purina Rodent Chow Special Mix 5001-S supplemented with 0.25% cholic acid and 1.0% cholesterol and water ad libitum for 8 days. Each test substance was administered to a group of six rats fed the same diet with the test diet mixed in as 0.005-0.1% of the total diet. Body weight and food consumption were recorded prior to diet administration and at termination. Typical doses of the test substances were 5-100 mg/kg/day.
At termination, blood was collected from anesthetized rats and the serum was separated by centrifugation. Total serum cholesterol was assayed using the Sigma Diagnostics enzymatic kit for the determination of cholesterol, Procedure No. 352, modified for use with ninety-six well microtiter plates. After reconstitutiton with water the reagent contains 300 U/l cholesterol oxidase, 100 U/l cholesterol esterase, 1000 U/l horse radish peroxidase, 0.3 mmol/l 4-aminoantipyrine and 30.0 mmol/l p-hydroxybenzene sulfonate in a pH 6.5 buffer. In the reaction cholesterol was oxidized to produce hydrogen peroxide which was used to form a quinoneimine dye. The concentration of dye formed was measured spectrophotometrically by absorbance at 490 nm after incubation at 25° C. for 30 minutes. The concentration of cholesterol was determined for each serum sample relative to a commercial standard from Sigma.
HDL cholesterol concentrations in serum were determined by separation of lipoprotein classes by fast protein liquid chromatography (FPLC) by a modification of the method of Kieft et al., (J. Lipid Res., 32, 859-866 (1991). Using this methodology, […] of serum was injected onto Superose 12 and Superose 6 (Pharmacia), in series, with a column buffer of 0.05 M Tris (2-amino-2-hydroxymethyl-1,3-propanediol) and 0.15 M sodium chloride at a flow rate of 0.5 mL/min. The eluted sample was mixed on line with Boehringer-Mannheim cholesterol reagent pumped at 0.2 mL/min. The combined eluents were mixed and incubated on line through a knitted coil (Applied Biosciences) maintained at a temperature of 45° C. The eluent was monitored by measuring absorbance at 490 nm and gives a continuous absorbance signal proportional to the cholesterol concentration. The relative concentration for each lipoprotein class was calculated as the percent of total absorbance. HDL cholesterol concentration in serum was calculated as the percent of total cholesterol as determined by FPLC multiplied by the total serum cholesterol concentration.
In Examples 5-7, 9, 10 and 12-20 the test compounds were administered at a dose of 100 mg/kg. In Examples 1, 2, 3 and 11, the test compounds were administered at a dose of 50 mg/kg. In Example 4, the test compound was administered at a dose of 46 mg/kg and in Example 8 at a dose of 90 mg/kg. The duration of treatment for all examples was eight days.

[1] = Rattus norvegicus, feed or water, 192 h, read-out: HDL Cholesterol Level Increase (%)

SMILES | melting point [°C] | change in vivo at 100 mg/kg (HDL cholesterol; [1]) [%] | other results
Cc1cc(Cl)ccc1N1CCCNC1=S [Example 1, 1-(4-Chloro-2-methyl-phenyl)-3,4,5,6-tetrahydro-pyrimidine-2(1H)-thione] | 266 to 268 |  | change in vivo at 50 mg/kg (HDL cholesterol; [1]): 86%
S=C1NCCCN1c1ccccc1 [Example 2, 1-Phenyl-3,4,5,6-tetrahydro-pyrimidine-2(1H)-thione] | 211 to 212 |  | change in vivo at 50 mg/kg (HDL cholesterol; [1]): 20%
CCN1CCCN(c2ccc(Cl)cc2C)C1=S [Example 3, 1-(4-Chloro-2-methyl-phenyl)-3-ethyl-3,4,5,6-tetrahydro-pyrimidine-2(1H)-thione] | 116 to 118 |  | change in vivo at 50 mg/kg (HDL cholesterol; [1]): 152%
Cc1cccc(C)c1N1CCCNC1=S [Example 4, 1-(2,6-Dimethyl-phenyl)-3,4,5,6-tetrahydro-pyrimidine-2(1H)-thione] | 249 to 251 |  | change in vivo at 46 mg/kg (HDL cholesterol; Rattus norvegicus, feed or water, 192 h, dose 46 mg/kg mixed in diet, read-out: HDL Cholesterol Level Increase (%)): 34%
CCN1CCCN(c2cc(Cl)ccc2C)C1=S [Example 5, 1-(5-Chloro-2-methyl-phenyl)-3-ethyl-3,4,5,6-tetrahydro-pyrimidine-2(1H)-thione] | 111 to 112 | 183 | 
Cc1ccc(Cl)cc1N1CCCN(C(C)C)C1=S [Example 6, 1-(5-Chloro-2-methyl-phenyl)-3-isopropyl-3,4,5,6-tetrahydro-pyrimidine-2(1H)-thione] | 176 to 178 | 137 | 
Cc1cc(Cl)ccc1N1CCCN(C(C)C)C1=S [Example 7, 1-(4-Chloro-2-methyl-phenyl)-3-isopropyl-3,4,5,6-tetrahydro-pyrimidine-2(1H)-thione] | 147 to 149 | 92 | 
C=CCN1CCCN(c2cc(Cl)ccc2C)C1=S [Example 8, 3-Allyl-1-(5-chloro-2-methyl-phenyl)-3,4,5,6-tetrahydro-pyrimidine-2(1H)-thione] | 71 to 72 |  | change in vivo at 90 mg/kg (HDL cholesterol; Rattus norvegicus, feed or water, 192 h, dose 90 mg/kg mixed in diet, read-out: HDL Cholesterol Level Increase (%)): 21%
Cc1ccc(Cl)cc1N1CCCN(C)C1=S [Example 9, 1-(5-Chloro-2-methyl-phenyl)-3-methyl-3,4,5,6-tetrahydro-pyrimidine-2(1H)-thione] | 143 to 145 | 143 | 
C=CCN1CCCN(c2ccc(Cl)cc2C)C1=S [Example 10, 3-Allyl-1-(4-chloro-2-methyl-phenly)-3,4,5,6-tetrahydro-pyrimidine-2(1H)-thione] |  |  | HDL Cholesterol Level Increase (%) (HDL cholesterol): 57%
Cc1ccc(Cl)cc1N1CCCN(CC(C)C)C1=S [Example 14, 1-(5-Chloro-2-methyl-phenyl)-3-isobutyl-3,4,5,6-tetrahydro-pyrimidine-2-(1H)-thione] |  |  | HDL Cholesterol Level Increase (%) (HDL cholesterol): 66%

Second part, led by results:

melting point [°C] | SMILES | change in vivo at 100 mg/kg (HDL cholesterol; [1]) [%] | other results
143 to 145 | Cc1cc(Cl)ccc1N1CCCN(C)C1=S [Example 11, 1-(4-Chloro-2-methyl-phenyl)-3-methyl-3,4,5,6-tetrahydro-pyrimidine-2(1H)thione] |  | change in vivo at 50 mg/kg (HDL cholesterol; [1]): 86%
82 to 84 | C=CCN1CCCN(c2c(C)cccc2Cl)C1=S [Example 12, 3-Allyl-1-(6-chloro-2-methyl-phenyl)-3,4,5,6-tetrahydro-pyrimidine-2(1H)-thione] | 19 | 
164 to 165 | Cc1cccc(Cl)c1N1CCCN(C)C1=S [Example 13, 1-(6-Chloro-2-methyl-phenyl)-3-methyl-3,4,5,6-tetrahydro-pyrimidine-2(1H)-thione] | 81 | 
135 to 136 | Cc1cccc(Cl)c1N1CCCN(C(C)C)C1=S [Example 15, 1-(6-Chloro-2-methyl-phenyl)-3-isopropyl-3,4,5,6-tetrahydro-pyrimidine-2(1H)-thione] | 86 | 
88 to 90 | CCN1CCCN(c2c(C)cccc2Cl)C1=S [Example 16, 1-(6-Chloro-2-methyl-phenyl)-3-ethyl-3,4,5,6-tetrahydro-pyrimidine-2(1H)-thione] | 85 | 
88 to 90 | Cc1cc(Cl)ccc1N1CCCN(CC(C)C)C1=S [Example 17, 1-(4-Chloro-2-methyl-phenyl)-3-isobutyl-3,4,5,6-tetrahydro-pyrimidine-2(1H)-thione] | 12 | 
89 to 91 | Cc1cccc(Cl)c1N1CCCN(C2CCC2)C1=S [Example 18, 1-(6-Chloro-2-methyl-phenyl)-3-cyclobutyl-3,4,5,6-tetrahydro-pyrimidine-2(1H)-thione] | 42 | 
152 to 154 | Cc1ccc(Cl)cc1N1CCCN(C2CCC2)C1=S [Example 19, 1-(5-Chloro-2-methyl-phenyl)-3-cyclobutyl-3,4,5,6-tetrahydro-pyrimidine-2(1H)-thione] | 37 | 
119 to 121 | Cc1cccc(Cl)c1N1CCCN(CC(C)C)C1=S [Example 20, 1-(6-Chloro-2-methyl-phenyl)-3-isobutyl-3,4,5,6-tetrahydro-pyrimidine-2(1H)-thione] | 24 | 
